Measured values published in the NIST ThermoML archive (doi:10.1016/j.jct.2016.12.015).

Test: molar heat capacity at constant pressure
Settings: 101.33 kPa, Crystal, Small (less than 1 g) adiabatic calorimetry

C[C@H]1C[C@@H]2[C@H]([C@@H](O)C[C@@]3(C)[C@H]2CC[C@]3(O)C(=O)CO)[C@@]2(C)C=CC(=O)C=C12 [Methylprednisolone]
Settings | molar heat capacity at constant pressure [J/K/mol]
5 K | 0.981
6.33 K | 2.001
6.49 K | 2.141
6.65 K | 2.26
6.78 K | 2.357
6.95 K | 2.495
7.1 K | 2.55
7.24 K | 2.74
7.49 K | 3.021
7.82 K | 3.43
8.13 K | 3.81
8.44 K | 4.275
8.75 K | 4.579
9.05 K | 4.913
9.36 K | 5.269
9.69 K | 5.653
10 K | 6.06
10.01 K | 6.058
10.33 K | 6.528
10.66 K | 6.921
11 K | 7.373
11.38 K | 7.86
11.77 K | 8.373
12.06 K | 8.762
12.88 K | 9.96
14.16 K | 11.96
15 K | 13.31
15.44 K | 14.15
16.74 K | 16.54
18.07 K | 19.18
19.43 K | 21.92
20 K | 22.8
22.43 K | 28.16
25 K | 33.3
25.22 K | 33.67
28.44 K | 39.96
30 K | 42.63
31.97 K | 46.03
35 K | 51.54
35.53 K | 52.34
39.09 K | 58.93
40 K | 60.39
42.67 K | 65.35
45 K | 69.3
46.26 K | 71.33
49.86 K | 77.8
50 K | 78.27
53.45 K | 84.8
57.05 K | 91.01
60 K | 96.39
60.67 K | 97.6
64.3 K | 104
67.91 K | 110.8
70 K | 114.2
71.53 K | 116.8
75.17 K | 122.4
78.82 K | 129.7
80 K | 131.5
81.9 K | 134.6
82.48 K | 136
86.1 K | 142.8
86.12 K | 142.4
89.32 K | 147.8
90 K | 149.3
92.91 K | 154.1
96.5 K | 159.9
100 K | 165.9
100.08 K | 165.8
103.66 K | 171.9
107.23 K | 178
110 K | 182.1
110.81 K | 183.4
114.37 K | 188.6
117.93 K | 195.4
120 K | 198.1
121.48 K | 200.9
125.04 K | 206.7
128.59 K | 212
130 K | 213.9
132.14 K | 217.1
135.68 K | 222.2
139.22 K | 228.2
140 K | 229.6
142.74 K | 233.6
146.27 K | 238.8
149.79 K | 244.2
150 K | 245
153.3 K | 250
156.82 K | 254.9
160 K | 260.2
160.33 K | 260.9
163.83 K | 266.4
167.33 K | 271.7
170 K | 275.3
170.82 K | 276.8
174.31 K | 282.2
177.79 K | 287.2
180 K | 290.3
181.26 K | 292.5
184.73 K | 297.4
188.19 K | 302.5
190 K | 305.3
191.65 K | 307.8
195.06 K | 312.7
198.5 K | 318.2
200 K | 320.4
201.93 K | 323.6
205.36 K | 328.5
208.8 K | 333.1
210 K | 335.6
212.23 K | 338.2
215.66 K | 343.7
219.09 K | 349.3
220 K | 350.7
222.53 K | 355
225.95 K | 361
229.38 K | 364.2
230 K | 365.9
232.82 K | 370.1
236.24 K | 375.2
239.67 K | 380.7
240 K | 381.1
243.1 K | 385.9
246.53 K | 391.1
249.92 K | 396.2
250 K | 396.3
253.35 K | 401.5
256.77 K | 406.9
260 K | 411.6
260.19 K | 412
263.6 K | 417.5
267.02 K | 422.9
270 K | 427.1
270.43 K | 428.4
273.84 K | 432.9
277.25 K | 438.4
280 K | 442.9
280.64 K | 443.7
284.03 K | 449
287.42 K | 454
290 K | 458.9
290.79 K | 460.1
294.15 K | 465.4
297.51 K | 471.2
298.15 K | 472.1
300 K | 475.1
300.85 K | 475.9
304.09 K | 481.9
307.42 K | 487.8
310 K | 491.2
310.76 K | 492.9
314.09 K | 498.1
317.42 K | 503
320 K | 507
320.76 K | 508
324.1 K | 513.3
327.44 K | 518.2
330 K | 522.5
330.78 K | 523.9
334.13 K | 529
337.48 K | 534
340 K | 538.4
340.82 K | 539.6
344.16 K | 545.9
347.5 K | 551.7
350 K | 556.8
350.09 K | 556.9
